Results: patent US8288367B2, “Substituted estratriene derivatives as 17BETA HSD inhibitors” (Solvay Pharmaceuticals GmBH, priority 2006, dated 2012)

Tests used:
17β-HSD3 enzyme = molecular target: T1, 17β-HSD3 enzyme (Homo sapiens, UniProt P37058); assay: Inhibition of 17β-HSD type 3 enzyme in MCF-7 cells stably expressing 17β-HSD3 (HPLC); format: cell-based; details: MCF7, MCF-7 cells expressing 17β-HSD3, 2 nM androstenedione; for inhibition at 1 µM: 1 μM compound; for inhibition at 10 µM: 10 μM compound
T1 construct: expressed in transfected cells; host or cells: MCF-7 cell lines stably expressing 17β-HSD3
T1 sequence (P37058 1-310): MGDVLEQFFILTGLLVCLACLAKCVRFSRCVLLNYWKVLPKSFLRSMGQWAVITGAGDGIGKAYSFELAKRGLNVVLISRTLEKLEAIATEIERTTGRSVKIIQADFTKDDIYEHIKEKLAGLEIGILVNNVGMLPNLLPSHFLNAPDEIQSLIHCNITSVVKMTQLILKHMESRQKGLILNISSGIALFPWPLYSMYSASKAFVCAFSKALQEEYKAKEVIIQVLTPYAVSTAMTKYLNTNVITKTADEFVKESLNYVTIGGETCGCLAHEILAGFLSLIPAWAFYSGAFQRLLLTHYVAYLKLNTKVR
Experimental: The compounds were screened in respect of 17β-HSD3 enzyme activity in vitro on established MCF-7 cell lines, each stably expressing the 17β-HSD3 enzyme. The interconversion of substrate by 17β-HSD3 and the 17β-HSD3 inhibiting activity of chemical compounds in these cell lines were detected by HPLC system.
Varying amounts of the test compounds were incubated in the growth medium of the 17β-HSD3 expressing cells together tritium labeled androstenedione (2 nM). The medium samples were removed after exact incubation time and the reaction is stopped by trichloroacetic acid (TCA). The samples were analyzed by HPLC-coupled flow scintillation analysis.
Conversion: The 17β-HSD3 inhibiting activity of an individual test compound was calculated by comparing the conversion of a control sample without any test compound (referred to as “Negative Control”) to the (reduced) conversion of the test sample containing the particular compound to be tested (referred to as “Test Sample”).

[1] = molecular target: T2, recombinant human 17β-HSD2 (Homo sapiens, UniProt P37059); assay: Recombinant 17β-HSD2 assay (HPLC, 3H-estradiol conversion); format: biochemical; details: 50 nM estradiol, 1 mM β-NAD, read-out: Inhibition of rec. 17β-HSD2; for inhibition at 0.1 µM: 100 nM compound; for inhibition at 1 µM: 1 μm compound
T2 construct: made in house; host or cells: Sf9 insect cells (baculovirus, Bac to Bac Expression System)
T2 sequence (P37059 1-387): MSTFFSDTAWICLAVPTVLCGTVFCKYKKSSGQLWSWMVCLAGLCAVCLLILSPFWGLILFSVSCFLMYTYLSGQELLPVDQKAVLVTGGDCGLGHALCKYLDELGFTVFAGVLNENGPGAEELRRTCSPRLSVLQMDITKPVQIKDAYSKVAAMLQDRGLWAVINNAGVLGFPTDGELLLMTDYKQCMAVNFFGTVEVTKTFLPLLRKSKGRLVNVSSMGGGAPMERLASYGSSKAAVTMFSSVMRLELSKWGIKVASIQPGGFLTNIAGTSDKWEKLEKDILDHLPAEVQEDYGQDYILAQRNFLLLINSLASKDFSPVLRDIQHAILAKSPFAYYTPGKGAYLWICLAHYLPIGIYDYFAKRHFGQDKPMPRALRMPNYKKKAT
Experimental: 17β-HSD1 or 17β-HSD2 purification: Recombinant 17β-HSD1 and 17β-HSD2 baculoviruses were generated by the “Bac to Bac Expression System” (Invitrogen). Recombinant 17β-HSD1 or 17β-HSD2 bacmids were transfected to Sf9 insect cells using “Cellfectin Reagent” (Invitrogen). 60 h later cells were harvested; the fractions including 17β-HSD1 or 17β-HSD2 were isolated as described by Puranen et al. (1994). Aliquots were stored frozen until determination of enzymatic activity. Recombinant 17β-HSD2 assay: Recombinant 17β-HSD2 assay was performed as described for 17β-HSD1 but with following modifications: 6 μg/ml of recombinant protein homogenate, 50 nM Estradiol (Sigma, E8875) as a substrate, 800 000 cpm/ml ^3H-estradiol (PerkinElmer, NET317) as a tracer substrate and 1 mM β-NAD (Sigma N7004) as a co-factor were used. Total radioactivity for estrone and estradiol were determined in each sample and percent inhibition of estrone conversion by the respective inhibitor was calculated. For the calculation of % inhibition the following formula was used: [formula] Percent inhibition was calculated as follows: % inhibition=100−% conversion

[2] = molecular target: T3, recombinant human 17β-HSD1 (Homo sapiens, UniProt P14061); assay: Recombinant 17β-HSD1 assay (HPLC, 3H-estrone conversion); format: biochemical; details: 30 nM estrone, 1 mM NADPH, 30 min RT, read-out: Inhibition of rec. 17β-HSD1; for inhibition at 0.1 µM: 100 nM compound; for inhibition at 1 µM: 0.5 h, 1 μm compound
T3 construct: made in house; host or cells: Sf9 insect cells (baculovirus, Bac to Bac Expression System)
T3 sequence (P14061 1-328): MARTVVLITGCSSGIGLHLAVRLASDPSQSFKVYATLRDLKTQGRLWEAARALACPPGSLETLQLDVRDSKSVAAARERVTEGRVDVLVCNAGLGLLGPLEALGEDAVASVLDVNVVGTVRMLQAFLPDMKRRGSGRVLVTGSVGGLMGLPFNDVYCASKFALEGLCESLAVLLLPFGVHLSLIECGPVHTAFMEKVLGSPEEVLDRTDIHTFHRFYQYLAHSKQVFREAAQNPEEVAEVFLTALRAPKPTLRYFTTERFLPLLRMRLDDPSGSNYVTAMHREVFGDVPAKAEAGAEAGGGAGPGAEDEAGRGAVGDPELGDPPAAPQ
Outline: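 Sf9-expressed human 17β-HSD1 homogenate (0.1 μg/ml) in 20 mM KH2PO4 pH 7.4 with 30 nM estrone plus 3H-estrone tracer and 1 mM NADPH, 30 min at RT, inhibitors at 1 μM or 0.1 μM. Stopped with TCA; estrone and estradiol separated by reverse-phase HPLC with flow scintillation; % inhibition = 100 − % conversion.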

Cc1cccc2c(CCNC(=O)CC[C@@H]3CC(F)(F)[C@@]4(C)CC[C@@H]5c6ccc(B(O)O)cc6CC[C@H]5[C@H]34)c[nH]c12 [Compound 67, [17,17-difluoro-15beta-(3-{[2-(7-methyl-1H-indol-3-yl)ethyl]amino}-3-oxopropyl)estra-1(10),2,4-trien-3-yl]boronic acid]
inhibition at 1 µM (17β-HSD3 enzyme): 40% | inhibition at 10 µM (17β-HSD3 enzyme): 84% | inhibition at 0.1 µM [1]: 10% | inhibition at 1 µM [1]: 15.8% | inhibition at 0.1 µM [2]: 47% | inhibition at 1 µM [2]: 66%

CCN(CC)C(=O)CC[C@@H]1CC(F)(F)[C@@]2(C)CC[C@@H]3c4ccc(B(O)O)cc4CC[C@H]3[C@H]12 [Compound 71, [15beta-[3-(diethylamino)-3-oxopropyl]-17,17-difluoroestra-1(10),2,4-trien-3-yl]boronic acid]
inhibition at 1 µM (17β-HSD3 enzyme): 31% | inhibition at 10 µM (17β-HSD3 enzyme): 60% | inhibition at 0.1 µM [1]: 7.9% | inhibition at 1 µM [1]: 16.3% | inhibition at 0.1 µM [2]: 78% | inhibition at 1 µM [2]: 85%

C[C@]12CC[C@@H]3c4ccc(B(O)O)cc4CC[C@H]3[C@@H]1[C@@H](CCCC(=O)NC1CCCCC1)CC2(F)F [Compound 48, [15alpha-[4-(cyclohexylamino)-4-oxobutyl]-17,17-difluoroestra-1(10),2,4-trien-3-yl]boronic acid]
inhibition at 1 µM (17β-HSD3 enzyme): 13% | inhibition at 10 µM (17β-HSD3 enzyme): 63% | inhibition at 0.1 µM [1]: 6.4% | inhibition at 1 µM [1]: 12.8% | inhibition at 0.1 µM [2]: 25% | inhibition at 1 µM [2]: 50%

COc1ccc(CCN(C)C(=O)CC[C@@H]2CC(F)(F)[C@@]3(C)CC[C@@H]4c5ccc(B(O)O)cc5CC[C@H]4[C@H]23)cc1OC [Compound 72, [15beta-(3-{[2-(3,4-dimethoxyphenyl)ethyl](methyl)amino}-3-oxopropyl)-17,17-difluoroestra-1(10),2,4-trien-3-yl]boronic acid]
inhibition at 1 µM (17β-HSD3 enzyme): 45% | inhibition at 10 µM (17β-HSD3 enzyme): 71% | inhibition at 0.1 µM [1]: -2.4% | inhibition at 1 µM [1]: 5.3% | inhibition at 0.1 µM [2]: 39% | inhibition at 1 µM [2]: 77%

C[C@]12CC[C@@H]3c4ccc(B(O)O)cc4CC[C@H]3[C@@H]1[C@@H](CCCC(=O)NCc1cccnc1)CC2(F)F [Compound 53, [17,17-difluoro-15alpha-{4-oxo-4-[(pyridin-3-ylmethyl)amino]butyl}estra-1(10),2,4-trien-3-yl]boronic acid]
inhibition at 1 µM (17β-HSD3 enzyme): 4% | inhibition at 10 µM (17β-HSD3 enzyme): 50% | inhibition at 0.1 µM [1]: 5% | inhibition at 1 µM [1]: 8.6% | inhibition at 0.1 µM [2]: 19% | inhibition at 1 µM [2]: 50%

C[C@]12CC[C@@H]3c4ccc(B(O)O)cc4CC[C@H]3[C@@H]1[C@@H](CCCC(=O)Nc1ccc3c(c1)OCO3)CC2=O [Compound 13, [15alpha-[4-(1,3-benzodioxol-5-ylamino)-4-oxobutyl]-17-oxoestra-1(10),2,4-trien-3-yl]boronic acid]
inhibition at 1 µM (17β-HSD3 enzyme): 18% | inhibition at 10 µM (17β-HSD3 enzyme): 22% | inhibition at 0.1 µM [1]: -7.6% | inhibition at 1 µM [1]: 2% | inhibition at 0.1 µM [2]: 27% | inhibition at 1 µM [2]: 52%

C[C@]12CC[C@@H]3c4ccc(B(O)O)cc4CC[C@H]3[C@@H]1[C@H](CCC(=O)NCc1ccccc1)CC2(F)F [Compound 63, [15beta-[3-(benzylamino)-3-oxopropyl]-17,17-difluoroestra-1(10),2,4-trien-3-yl]boronic acid]
inhibition at 1 µM (17β-HSD3 enzyme): 41% | inhibition at 10 µM (17β-HSD3 enzyme): 88% | inhibition at 0.1 µM [1]: 12.8% | inhibition at 1 µM [1]: 16.9% | inhibition at 0.1 µM [2]: 51% | inhibition at 1 µM [2]: 66%

CCN(CC)C(=O)CCC[C@H]1CC(F)(F)[C@@]2(C)CC[C@@H]3c4ccc(B(O)O)cc4CC[C@H]3[C@H]12 [Compound 49, [15alpha-[4-(diethylamino)-4-oxobutyl]-17,17-difluoroestra-1(10),2,4-trien-3-yl]boronic acid]
inhibition at 1 µM (17β-HSD3 enzyme): 62% | inhibition at 10 µM (17β-HSD3 enzyme): 89% | inhibition at 0.1 µM [1]: 7.7% | inhibition at 1 µM [1]: 11.6% | inhibition at 0.1 µM [2]: 29% | inhibition at 1 µM [2]: 50%

C[C@]12CC[C@@H]3c4ccc(B(O)O)cc4CC[C@H]3[C@@H]1[C@H](CCC(=O)NCc1ccc3c(c1)OCO3)CC2(F)F [Compound 60, [15beta-{3-[(1,3-benzodioxol-5-ylmethyl)amino]-3-oxopropyl}-17,17-difluoroestra-1(10),2,4-trien-3-yl]boronic acid]
inhibition at 1 µM (17β-HSD3 enzyme): 28% | inhibition at 10 µM (17β-HSD3 enzyme): 67% | inhibition at 0.1 µM [1]: 9.5% | inhibition at 1 µM [1]: 12.5% | inhibition at 0.1 µM [2]: 46% | inhibition at 1 µM [2]: 71%

C[C@]12CC[C@@H]3c4ccc(Nc5ccc6c(c5)S(=O)(=O)C=C6)cc4CC[C@H]3[C@@H]1[C@@H](CCCC(=O)N1CCOCC1)CC2=O [Compound 91, 3-[(1,1-dioxido-1-benzothien-6-yl)amino]-15alpha-(4-morpholin-4-yl-4-oxobutyl)estra-1(10),2,4-trien-17-one]
inhibition at 1 µM (17β-HSD3 enzyme): 7% | inhibition at 10 µM (17β-HSD3 enzyme): 52% | inhibition at 0.1 µM [1]: 0.7% | inhibition at 1 µM [1]: 5.7% | inhibition at 0.1 µM [2]: 36% | inhibition at 1 µM [2]: 69%
